Data reported in US20210380548A1, “Fused [1,2,4]Thiadiazine Derivatives Which Act as KAT Inhibitors of the MYST Family” (CTxT Pty Limited, priority 2017, published 2021).

How the values were obtained:
HBO-KAT7 [1] = molecular target: T1, HBO-KAT7 (Homo sapiens, UniProt O95251); experiment: Acetyltransferase biochemical assay (AlphaScreen), KAT7; details: Table 3 (HBO-KAT7); 0.4 μM Acetyl coenzyme A, histone H3.1, 40 nM enzyme
T1 construct: encoding amino acid residues 325 to 611 (Uniprot 095251-1) of human KAT7; made in house; host or cells: E. coli BL21 DE3 RIL

TIP60-KAT5 [2] = molecular target: T2, TIP60-KAT5 (Homo sapiens, UniProt Q92993); experiment: Acetyltransferase biochemical assay (AlphaScreen), KAT5; details: Table 1 (TIP60-KAT5); 0.4 μM Acetyl coenzyme A, histone H4, 10 nM enzyme
T2 construct: encoding amino acid residues 2 to 461 (Uniprot Q92993-2) of human KAT5 isoform; made in house; host or cells: E. coli BL21 DE3

[3] = test system: histone H3K14 acetylation (HBO1 mediated) in U2OS cells; experiment: Histone H3 Lysine 14 Acetylation Biomarker Assay (96 well, U2OS); format: cell-based; details: Homo sapiens, 24 h, Table 6, H3K14ac, 24 hours incubation, serum free medium
Method: Compounds may be tested for their ability to inhibit acetylation of the histone H3K14 marker (which is HBO1 mediated) in the following assay:
The cell line U2OS was seeded at a density of 12,000 cells per well in 96 well optical quality tissue culture plates in RPMI medium and 10% foetal bovine serum, and allowed to adhere for 24 hours under standard culture conditions (37 degree Celsius, 5% CO2). At the end of this period the cells were washed with serum free medium. Compound dilutions prepared in DMSO were added to the serum free medium, with negative control wells reserved for treatment with DMSO only and positive controls receiving a potent inhibitor compound (e.g. Example 36 in WO2016/198507) at 10 μM concentration. After incubation for 24 hours, the cells were fixed with 3.7% formaldehyde in PBS for 20 minutes at room temperature, washed with phosphate buffer saline containing 0.1% Tween 20 and blocked with Odyssey blocking buffer (LI-COR, Lincoln, Nebr.) containing 0.1% TritonX100. Anti-H3K14ac specific antibody (Cell Signalling Technologies) in Odyssey blocking buffer containing 0.1% Tween 20 was added and incubated for 14 hours at 4 degree Celsius. After washing, a secondary antibody labelled with Alexa647 dye (LifeTechnologies) and Hoechst 33342 (1 μg/mL, SigmaAldrich) were added for 1 hour incubation. Plates were washed and read on a PerkinElmer Phenix high content imaging platform. Using a Columbus image analysis pipeline, individual nuclei were located by Hoechst 33342 stain and the acetylation level was calculated from the Alexa647-related intensity in the same area. The resulting mean intensity per cell was directly converted to percent inhibition relative to controls on the same plate and the data fitted against a four-parameter logistic model to determine the 50% inhibitory concentration (IC50).

MOZ-KAT6A [4] = molecular target: T3, MOZ-KAT6A (Homo sapiens, UniProt Q92794, A567V); experiment: Acetyltransferase biochemical assay (AlphaScreen), KAT6A; details: Table 2 (MOZ-KAT6A); 10 μM Acetyl coenzyme A, histone H3.1, 5 nM enzyme
T3 construct: encoding amino acid residues 507 to 778 (Uniprot Q92794-1) of human KAT6A; made in house; host or cells: E. coli BL21 DE3

HBO-KAT7 [5] = molecular target: T1, HBO-KAT7; experiment: Revised Acetyltransferase Biochemical Assay, KAT7; details: Table 9 (HBO-KAT7), 1 μM Acetyl coenzyme A
MOZ-KAT6A [6] = molecular target: T3, MOZ-KAT6A; experiment: Revised Acetyltransferase Biochemical Assay, KAT6A; details: Table 8 (MOZ-KAT6A), 1 μM Acetyl coenzyme A
TIP60-KAT5 [7] = molecular target: T2, TIP60-KAT5; experiment: Revised Acetyltransferase Biochemical Assay, KAT5; details: 10 nM KAT5, 1 μM AcCoA, 100 nM histone H4, 90 min
[8] = test system: histone H2A.Z Lysine 7 acetylation (TIP60 mediated) in U2OS cells; experiment: H2A.Z Lysine 7 Acetylation Biomarker Assay (384-well, U2OS); format: cell-based; details: Homo sapiens, serum free medium, 24 hours incubation
In short: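 U2OS cells (3,000/well) were treated with compound for 24 h after a serum-free wash, then fixed. They were stained with anti-H2A.ZK7ac, an AlexaFluor 488 secondary and Hoechst. High-content imaging gave mean nuclear intensity per cell, converted to percent inhibition against on-plate controls, and IC50 came from a four-parameter logistic fit.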

[9] = test system: histone H3 Lysine 14 acetylation (HBO1 mediated) in U2OS cells; experiment: Histone H3 Lysine 14 Acetylation Biomarker Assay (384-well, U2OS); format: cell-based; details: Homo sapiens, serum free medium, 24 hours incubation
In short: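 U2OS cells in serum-free medium treated with compound 24 h; DMSO and 10 μM reference inhibitor as 0% and 100% controls. Fixed cells immunostained for H3K14ac (AlexaFluor 488) with Hoechst nuclear mask, imaged by high-content analysis; per-cell intensity converted to % inhibition, IC50 by four-parameter logistic fit.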

MOF-KAT8 [10] = molecular target: T4, MOF-KAT8 (Homo sapiens, UniProt Q9H7Z6); experiment: Acetyltransferase biochemical assay (AlphaScreen), KAT8; details: Table 4 (MOF-KAT8); 0.4 μM Acetyl coenzyme A, histone H4, 20 nM enzyme
T4 sequence (Q9H7Z6 177-447): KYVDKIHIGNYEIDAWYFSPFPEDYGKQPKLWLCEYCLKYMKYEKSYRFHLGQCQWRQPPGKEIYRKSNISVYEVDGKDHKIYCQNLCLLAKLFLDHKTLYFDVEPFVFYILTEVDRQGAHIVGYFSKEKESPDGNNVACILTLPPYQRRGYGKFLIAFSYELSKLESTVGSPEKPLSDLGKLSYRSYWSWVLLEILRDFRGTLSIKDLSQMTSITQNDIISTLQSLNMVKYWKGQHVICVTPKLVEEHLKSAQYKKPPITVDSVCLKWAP

QKF-KAT6B = molecular target: T5, QKF-KAT6B (Homo sapiens, UniProt Q8WYB5); experiment: Revised Acetyltransferase Biochemical Assay, KAT6B; details: 8 nM KAT6B, 1 μM AcCoA, 100 nM histone H3.1, 90 min
T5 construct: purchased SignalChem K315-381BG
Excerpt: KAT6B was obtained from SignalChem, catalog ID: K315-381BG

MOF-KAT8 [11] = molecular target: T4, MOF-KAT8; experiment: Revised Acetyltransferase Biochemical Assay, KAT8
[12] = test system: histone H3K23 acetylation (KATE mediated) in U2OS cells; experiment: Histone H3 Lysine 23 Acetylation Biomarker Assay (U2OS); format: cell-based; details: Homo sapiens, 96 well, 24 hours incubation
In short: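 U2OS cells were treated with compound for 24 h, then fixed and immunostained for H3K23ac with Hoechst nuclear counterstain. Per-nucleus Alexa647 intensity was quantified by high-content imaging and converted to % inhibition against DMSO and 10 μM reference-inhibitor controls. IC50 was derived from a four-parameter logistic fit.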

T1 sequence (O95251 with tags, fused parts or gaps): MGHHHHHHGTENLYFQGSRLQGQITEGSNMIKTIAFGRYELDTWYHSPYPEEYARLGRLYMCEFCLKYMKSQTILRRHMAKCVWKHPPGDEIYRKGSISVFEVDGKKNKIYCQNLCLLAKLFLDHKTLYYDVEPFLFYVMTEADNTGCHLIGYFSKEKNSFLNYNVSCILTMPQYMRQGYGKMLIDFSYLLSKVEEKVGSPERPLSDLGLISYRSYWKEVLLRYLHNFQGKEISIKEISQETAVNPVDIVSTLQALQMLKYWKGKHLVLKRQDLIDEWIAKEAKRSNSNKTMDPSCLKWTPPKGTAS
T2 sequence (Q92993 2-461 isoform Q92993-2): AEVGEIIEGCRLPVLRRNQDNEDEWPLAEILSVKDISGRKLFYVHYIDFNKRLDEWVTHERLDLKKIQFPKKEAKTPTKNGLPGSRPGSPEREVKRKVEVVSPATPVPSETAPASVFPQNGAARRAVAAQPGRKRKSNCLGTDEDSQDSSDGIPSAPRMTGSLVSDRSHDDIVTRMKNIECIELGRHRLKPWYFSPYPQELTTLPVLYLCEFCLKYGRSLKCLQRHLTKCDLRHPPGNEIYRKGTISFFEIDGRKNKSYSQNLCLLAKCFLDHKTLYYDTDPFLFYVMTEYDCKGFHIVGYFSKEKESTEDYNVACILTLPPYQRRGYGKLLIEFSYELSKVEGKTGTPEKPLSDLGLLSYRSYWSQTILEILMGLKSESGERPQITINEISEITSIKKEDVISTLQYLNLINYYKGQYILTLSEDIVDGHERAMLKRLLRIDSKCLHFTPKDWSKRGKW
T5 sequence (Q8WYB5 whole entry): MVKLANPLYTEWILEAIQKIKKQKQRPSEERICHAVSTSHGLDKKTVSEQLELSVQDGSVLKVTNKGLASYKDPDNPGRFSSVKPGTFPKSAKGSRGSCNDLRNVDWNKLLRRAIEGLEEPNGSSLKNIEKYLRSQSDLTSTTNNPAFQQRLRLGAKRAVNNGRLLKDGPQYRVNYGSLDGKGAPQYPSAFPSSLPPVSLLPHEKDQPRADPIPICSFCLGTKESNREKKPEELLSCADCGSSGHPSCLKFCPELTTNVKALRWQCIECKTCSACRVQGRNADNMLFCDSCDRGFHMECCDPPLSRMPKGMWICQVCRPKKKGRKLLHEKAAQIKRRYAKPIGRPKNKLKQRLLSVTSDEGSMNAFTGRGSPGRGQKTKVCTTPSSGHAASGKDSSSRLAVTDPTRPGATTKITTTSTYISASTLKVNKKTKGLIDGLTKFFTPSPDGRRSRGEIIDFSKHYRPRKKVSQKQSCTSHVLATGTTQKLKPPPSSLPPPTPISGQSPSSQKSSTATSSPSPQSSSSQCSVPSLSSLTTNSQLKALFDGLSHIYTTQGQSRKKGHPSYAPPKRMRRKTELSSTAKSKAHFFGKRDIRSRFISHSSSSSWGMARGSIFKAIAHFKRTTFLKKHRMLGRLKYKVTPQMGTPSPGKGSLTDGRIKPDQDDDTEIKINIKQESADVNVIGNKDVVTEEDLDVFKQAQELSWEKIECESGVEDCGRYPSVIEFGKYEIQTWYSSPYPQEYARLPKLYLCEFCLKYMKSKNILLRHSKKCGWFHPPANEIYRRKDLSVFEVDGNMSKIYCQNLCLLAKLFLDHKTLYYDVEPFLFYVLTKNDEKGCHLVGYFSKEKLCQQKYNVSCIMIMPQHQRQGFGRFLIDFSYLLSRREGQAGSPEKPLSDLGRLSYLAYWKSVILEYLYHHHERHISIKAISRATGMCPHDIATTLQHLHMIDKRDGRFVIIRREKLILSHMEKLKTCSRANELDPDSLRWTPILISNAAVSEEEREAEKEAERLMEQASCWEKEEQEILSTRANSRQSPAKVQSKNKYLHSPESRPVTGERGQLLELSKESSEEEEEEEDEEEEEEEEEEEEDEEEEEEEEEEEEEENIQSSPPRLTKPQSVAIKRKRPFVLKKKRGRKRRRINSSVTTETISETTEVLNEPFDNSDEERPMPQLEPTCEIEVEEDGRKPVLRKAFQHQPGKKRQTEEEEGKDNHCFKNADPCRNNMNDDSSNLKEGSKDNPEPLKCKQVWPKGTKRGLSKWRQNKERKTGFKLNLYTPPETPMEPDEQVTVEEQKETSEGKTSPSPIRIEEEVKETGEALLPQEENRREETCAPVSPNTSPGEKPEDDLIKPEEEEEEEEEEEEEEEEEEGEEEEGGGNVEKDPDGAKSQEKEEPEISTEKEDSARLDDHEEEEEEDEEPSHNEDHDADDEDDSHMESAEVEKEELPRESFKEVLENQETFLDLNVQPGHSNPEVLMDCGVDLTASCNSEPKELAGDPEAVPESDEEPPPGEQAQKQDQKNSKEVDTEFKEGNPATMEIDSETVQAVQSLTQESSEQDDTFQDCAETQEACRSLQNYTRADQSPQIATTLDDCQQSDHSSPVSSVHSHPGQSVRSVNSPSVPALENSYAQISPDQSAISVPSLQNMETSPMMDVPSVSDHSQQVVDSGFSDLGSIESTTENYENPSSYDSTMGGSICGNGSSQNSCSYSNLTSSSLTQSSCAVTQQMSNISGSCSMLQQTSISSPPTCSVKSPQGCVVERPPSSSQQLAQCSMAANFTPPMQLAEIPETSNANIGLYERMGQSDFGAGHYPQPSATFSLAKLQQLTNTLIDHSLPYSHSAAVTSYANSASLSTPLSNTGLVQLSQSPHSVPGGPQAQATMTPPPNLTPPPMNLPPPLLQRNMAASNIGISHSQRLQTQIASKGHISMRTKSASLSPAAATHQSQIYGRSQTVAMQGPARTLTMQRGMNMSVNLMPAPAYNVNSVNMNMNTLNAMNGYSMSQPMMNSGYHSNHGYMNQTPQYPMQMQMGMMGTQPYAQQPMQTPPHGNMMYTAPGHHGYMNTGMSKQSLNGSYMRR
T3 sequence (Q92794 507-778 A567V limits assumed): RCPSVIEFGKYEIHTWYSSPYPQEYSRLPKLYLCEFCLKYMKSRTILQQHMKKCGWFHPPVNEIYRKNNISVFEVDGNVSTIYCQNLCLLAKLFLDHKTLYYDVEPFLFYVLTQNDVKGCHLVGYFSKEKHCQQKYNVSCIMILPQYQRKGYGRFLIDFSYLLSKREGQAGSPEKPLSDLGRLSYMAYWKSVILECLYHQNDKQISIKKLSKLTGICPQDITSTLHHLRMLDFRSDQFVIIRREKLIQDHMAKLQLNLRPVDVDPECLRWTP

Row | SMILES | IC50 (HBO-KAT7 [1]) | IC50 (TIP60-KAT5 [2]) | IC50 [3] | IC50 (MOZ-KAT6A [4]) | IC50 (HBO-KAT7 [5]) | IC50 (MOZ-KAT6A [6]) | IC50 (TIP60-KAT5 [7]) | IC50 [8] | IC50 [9] | IC50 (MOF-KAT8 [10]) | IC50 (QKF-KAT6B) | IC50 (MOF-KAT8 [11]) | IC50 [12]
1 | C#Cc1ccc2c(c1)S(=O)(=O)NC(C(=O)NCC(c1ccccc1)c1ccccc1)=N2 [Example 38, N-(2,2-diphenylethyl)-7-ethynyl-2H-benzo[e][1,2,4]thiadiazine-3-carboxamide 1,1-dioxide] | 0.154 µM | 1.96 µM | 1.5 µM | 0.532 µM |  |  |  |  |  |  |  |  | 
2 | O=C(NCC(c1ccc(F)cc1)c1ccccn1)C1=Nc2ccc(Br)cc2S(=O)(=O)N1 (stereo not shown) [Example 39, 7-bromo-N-(2-(4-fluorophenyl)-2-(pyridin-2-yl)ethyl)-2H-benzo[e][1,2,4]thiadiazine-3-carboxamide 1,1-dioxide] | 0.192 µM | 5.88 µM | 2.49 µM |  | 0.299 µM | 0.032 µM | 3.06 µM |  |  |  |  |  | 
3 | O=C(NCC(c1cccc(Cl)c1)c1ncco1)C1=Nc2ccc(I)cc2S(=O)(=O)N1 (stereo not shown) [Example 163] |  |  |  |  | 0.115 µM | 0.017 µM | 0.221 µM | 1.52 µM | 0.892 µM | 9.78 µM | 0.117 µM | 14.7 µM | 0.453 µM
4 | O=C(NCC(c1ccccc1)c1nccs1)C1=Nc2ccc(I)cc2S(=O)(=O)N1 (stereo not shown) [Example 167] |  |  |  |  | 0.062 µM | 0.004 µM | 0.056 µM | 0.516 µM | 0.349 µM | 6.48 µM | 0.027 µM | 8.4 µM | 0.057 µM
5 | O=C(NCC(c1ccccc1)c1nncs1)C1=Nc2ccc(I)cc2S(=O)(=O)N1 (stereo not shown) [Example 168] |  |  |  |  | 0.621 µM | 0.008 µM | 0.458 µM | 8.85 µM | 6.44 µM | 3.39 µM | 0.037 µM | 26.5 µM | 0.525 µM
6 | O=C(NCCc1ccccc1-c1n[nH]c(=O)o1)C1=Nc2ccc(I)cc2S(=O)(=O)N1 [Example 172] |  |  |  |  | 0.041 µM | 0.005 µM | 0.025 µM | 2.09 µM | 2.87 µM | 5.13 µM | 0.281 µM | 6.1 µM | > 10 µM
7 | O=C(NCC(c1ncco1)c1ccccc1OC(F)F)C1=Nc2ccc(I)cc2S(=O)(=O)N1 (stereo not shown) [Example 179] |  |  |  |  | 0.028 µM | 0.005 µM | 0.029 µM | 1.1 µM | 0.219 µM | 10.4 µM | 0.088 µM | 9.66 µM | 0.112 µM
8 | O=C(NCC(c1ccccc1)c1nnc(CC(F)(F)F)o1)C1=Nc2ccc(I)cc2S(=O)(=O)N1 (stereo not shown) [Example 181] |  |  |  |  | 0.32 µM | 0.032 µM | 0.123 µM | > 40 µM | 35.3 µM | 104 µM | 0.077 µM | 31.2 µM | > 10 µM
9 | O=C(NCC(c1ccccc1)c1ncco1)C1=Nc2ccc(Cl)cc2S(=O)(=O)N1 (stereo not shown) [Example 182] |  |  |  |  | 0.237 µM | 0.006 µM | 0.284 µM | 8.1 µM | 0.488 µM | 50 µM | 0.059 µM | 24.5 µM | 0.084 µM
10 | COc1cc(C)cc(C(CNC(=O)C2=Nc3ccc(I)cc3S(=O)(=O)N2)c2ncco2)c1 (stereo not shown) [Example 196, 7-iodo-N-(2-(3-methoxy-5-methylphenyl)-2-(oxazol-2-yl)ethyl)-2H-benzo[e][1,2,4]thiadiazine-3-carboxamide 1,1-dioxide] |  |  |  |  | 0.025 µM | 0.08 µM | 0.818 µM | 0.882 µM | 0.095 µM |  | 0.991 µM | 78.6 µM | 1.01 µM
11 | CN(CC(c1ccccc1)c1ncco1)C(=O)C1=Nc2ccc(I)cc2S(=O)(=O)N1 (stereo not shown) [Example 203] |  |  |  |  | 1.67 µM | 0.427 µM | 3.75 µM | > 40 µM | 2.26 µM | 103 µM | 3.31 µM | 115 µM | > 10 µM
12 | O=C(NCC(c1ccccc1)c1ncco1)C1=Nc2ccc(-c3c[nH]nn3)cc2S(=O)(=O)N1 (stereo not shown) [Example 213, N-(2-(Oxazol-2-yl)-2-phenylethyl)-7-(1H-1,2,3-triazol-4-yl)-2H-benzo[e][1,2,4]thiadiazine-3-carboxamide 1,1-dioxide] |  |  |  |  | 0.111 µM | 0.002 µM | 0.193 µM | 29.5 µM | 4.94 µM | 3.54 µM | 0.022 µM | 15.2 µM | 0.116 µM
13 | O=C(NCC(c1cccc(O)c1)c1ncco1)C1=Nc2ccc(I)cc2S(=O)(=O)N1 (stereo not shown) [Example 215, N-(2-(3-Hydroxyphenyl)-2-(oxazol-2-yl)ethyl)-7-iodo-2H-benzo[e][1,2,4]thiadiazine-3-carboxamide 1,1-dioxide] |  |  |  |  | 0.02 µM | 0.004 µM | 0.025 µM | 4.44 µM | 0.221 µM | 8.74 µM | 0.065 µM | 5.72 µM | 0.953 µM
14 | COCCC(CNC(=O)C1=Nc2ccc(I)cc2S(=O)(=O)N1)c1ccccc1 (stereo not shown) [Example 220, 7-Iodo-N-(4-methoxy-2-phenylbutyl)-2H-benzo[e][1,2,4]thiadiazine-3-carboxamide 1,1-dioxide] |  |  |  |  | 0.214 µM | 0.02 µM | 1.43 µM | 7.81 µM | 0.917 µM |  | 0.134 µM | 26.8 µM | 0.54 µM
15 | O=C(NCC(F)(F)c1ccccc1OC(F)F)C1=Nc2ccc(I)cc2S(=O)(=O)N1 [Example 231, N-(2-(2-(difluoromethoxy)phenyl)-2,2-difluoroethyl)-7-iodo-2H-benzo[e][1,2,4]thiadiazine-3-carboxamide 1,1-dioxide] |  |  |  |  | 0.143 µM | 0.1 µM | 0.306 µM | 4.52 µM | 3.88 µM |  | 3.24 µM | 6.53 µM | > 10 µM
